pEC50, pIC50: −log10 of the molar value.
How the values were obtained:
[1] = Cytotoxicity in anti-HBV assay; type: cell-based; conditions: human; HepG2-2.2.15 cells
Experimental: (§1) Anti-HBV assays were conducted at Southern Research Organization using an HBV DNA replicon with a luciferase reporter.
(§2) Southern Research reports HepG2-2.2.15 is a stable cell line containing the hepatitis B virus (HBV) ayw strain genome. Antiviral compounds blocking any late step of viral replication such as transcription, translation, pregenome encapsidation, reverse transcription, particle assembly and release can be identified and characterized using this cell line. Initially we test whether a compound will reduce the production of secreted HBV from cells utilizing our real time quantitative PCR (TaqMan) HBV DNA assay.

[2] = test system: hepatitis B virus (HBV) ayw strain; experiment: Anti-HBV assay with HepG2-2.2.15 cells (HBV DNA replication); type: cell-based; conditions: for Selectivity Index SI50: HepG2-2.2.15 cells; for pEC50: Hepatitis B virus, HepG2 2.2.15, read-out: Antiviral Activity EC50
Experimental: as §1, §2

[3] = Maximum tolerated dose study in mice; type: in vivo; conditions: IP, 20, 40 and 60 mg/kg daily for 10 days
Experimental: (§3) Maximum tolerated dose studies and pharmacokinetics for several LSD1 inhibitors were assessed to determine if the compound can be administered to mammals safely at does that are expected to achieve therapeutic effects. In particular, compound X was given to mice IP at 20 mg/kg 40 mg/kg and 60 mg/kg daily for 10 days in a MTD study conducted at Leitat.

[4] = Pharmacokinetics (PK studies); type: in vivo, mice; conditions: at the MTD study doses, in words
Experimental: as §3

Compound	pIC50 [1]	Selectivity Index SI50 [2]	pEC50 [2]	activity in an HBV DNA replication assay ([2]; in words)	tolerability in MTD study [3]	Cmax [4]
Nc1ccn([C@@H]2CS[C@H](CO)O2)c(=O)n1 (relative stereo) [Compound 3TC, (2R, cis)-4-amino-1-(2-hydroxymethyl-1,3-oxathiolan-5-yl)-(1H)-pyrimidin-2-one, reference compound]	4.22	>100	8.00			
NC1CC1c1ccc(-c2cccc(O)c2)cc1 (stereo not drawn) [Compound X]	4.26	26.8	5.65	low micromolar range	tolerated with acceptable toxicity	expected to result in therapeutic levels
